Assay results as given in ChEMBL document CHEMBL1681717, “Design and synthesis of a novel, orally active, brain penetrant, tri-substituted thiophene based JNK inhibitor” (Bioorg Med Chem Lett, 2011).

How the values were obtained:
[1] = target: T1, Mitogen-activated protein kinase 10 (Homo sapiens, UniProt P53779); assay: Inhibition of recombinant JNK3 after 60 mins by TR-FRET assay
[2] = target: Mitogen-activated protein kinase 9 (Homo sapiens, UniProt P45984); assay: Inhibition of recombinant JNK2 after 60 mins by TR-FRET assay
[3] = target: Mitogen-activated protein kinase 8 (Homo sapiens, UniProt P45983); assay: Inhibition of recombinant JNK1 after 60 mins by TR-FRET assay
[4] = target: Mitogen-activated protein kinase 14 (Homo sapiens, UniProt Q16539); assay: Inhibition of recombinant p38alpha after 60 mins by TR-FRET assay
[5] = target: T2, Mitogen-activated protein kinase 1 (Homo sapiens, UniProt P28482); assay: Inhibition of recombinant ERK2 after 60 mins by TR-FRET assay
T2 sequence (P28482 whole entry): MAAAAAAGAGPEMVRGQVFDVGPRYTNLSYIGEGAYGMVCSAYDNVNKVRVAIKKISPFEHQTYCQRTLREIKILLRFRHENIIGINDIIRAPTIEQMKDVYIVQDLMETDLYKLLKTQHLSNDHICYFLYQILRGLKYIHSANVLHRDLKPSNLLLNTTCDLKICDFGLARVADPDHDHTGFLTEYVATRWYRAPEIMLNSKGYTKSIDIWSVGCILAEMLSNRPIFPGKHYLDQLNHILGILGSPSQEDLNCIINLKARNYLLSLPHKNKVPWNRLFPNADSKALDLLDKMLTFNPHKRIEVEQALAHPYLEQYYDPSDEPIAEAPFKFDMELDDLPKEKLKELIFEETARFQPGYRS

MDR1 [6] = assay: Apparent permeability of the compound from apical to basolateral direction in MDCK2 cells expressing MDR1; type: ADME, cell-based, Canis lupus familiaris, MDCK-II; details: dog, MDCK-MDR1
MDR1 [7] = assay: Efflux ratio of permeability from basolateral to apical side over apical to basolateral side in MDCK2 cells expressing MDR1; type: ADME, cell-based, Canis lupus familiaris, MDCK-II; details: dog, MDCK-MDR1
[8] = Oxidative metabolic stability in mouse liver microsomes assessed as compound remaining at 5 uM after 120 mins; type: ADME, Microsome; details: read-out: Stability
[9] = Oxidative metabolic stability in human liver microsomes assessed as compound remaining at 5 uM after 120 mins; type: ADME, Microsome; details: read-out: Stability
Mus musculus = assay: Inhibition of kainic acid-induced JNK activation in FVB mouse hippocampus assessed as reduction of phosphorylated c-jun level at 300 mg/kg, po administered 1 hr before kainic acid challenge measured after 4 hrs; type: functional
[10] = target: Cyclin-dependent kinase 5/CDK5 activator 1 (Homo sapiens) (UniProt Q00535+Q15078); assay: Inhibition of CDK5/p25 at 10 uM; type: protein-complex assay
[11] = target: Cyclin-dependent kinase 2/cyclin A (Homo sapiens) (UniProt P24941+P20248+P78396); assay: Inhibition of CDK2/cyclin A at 10 uM; type: protein-complex assay
[12] = target: Cyclin-dependent kinase 1/cyclin B (Homo sapiens) (UniProt P06493+P14635+Q8WWL7+O95067); assay: Inhibition of CDK1/cyclin B at 10 uM; type: protein-complex assay
[13] = target: Calcium/calmodulin-dependent protein kinase type II subunit alpha (Homo sapiens) (UniProt Q9UQM7); assay: Inhibition of CAMK2A at 10 uM
Sequence of Calcium/calmodulin-dependent protein kinase type II subunit alpha (Homo sapiens) (Q9UQM7 whole entry): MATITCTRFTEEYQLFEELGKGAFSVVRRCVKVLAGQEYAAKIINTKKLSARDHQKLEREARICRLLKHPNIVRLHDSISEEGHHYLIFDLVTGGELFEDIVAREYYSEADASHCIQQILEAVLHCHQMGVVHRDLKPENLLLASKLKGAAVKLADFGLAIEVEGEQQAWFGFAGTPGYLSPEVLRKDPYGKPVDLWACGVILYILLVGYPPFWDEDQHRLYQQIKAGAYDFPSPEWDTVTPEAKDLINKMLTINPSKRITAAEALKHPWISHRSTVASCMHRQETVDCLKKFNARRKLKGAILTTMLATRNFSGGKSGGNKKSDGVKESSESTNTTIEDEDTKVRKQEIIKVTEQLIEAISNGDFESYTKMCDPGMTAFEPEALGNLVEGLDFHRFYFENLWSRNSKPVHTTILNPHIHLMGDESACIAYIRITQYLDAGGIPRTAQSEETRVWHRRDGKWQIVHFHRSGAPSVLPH

[14] = target: Aurora kinase A (Homo sapiens) (UniProt O14965); assay: Inhibition of Aurora A at 10 uM
Sequence of Aurora kinase A (Homo sapiens) (O14965 whole entry): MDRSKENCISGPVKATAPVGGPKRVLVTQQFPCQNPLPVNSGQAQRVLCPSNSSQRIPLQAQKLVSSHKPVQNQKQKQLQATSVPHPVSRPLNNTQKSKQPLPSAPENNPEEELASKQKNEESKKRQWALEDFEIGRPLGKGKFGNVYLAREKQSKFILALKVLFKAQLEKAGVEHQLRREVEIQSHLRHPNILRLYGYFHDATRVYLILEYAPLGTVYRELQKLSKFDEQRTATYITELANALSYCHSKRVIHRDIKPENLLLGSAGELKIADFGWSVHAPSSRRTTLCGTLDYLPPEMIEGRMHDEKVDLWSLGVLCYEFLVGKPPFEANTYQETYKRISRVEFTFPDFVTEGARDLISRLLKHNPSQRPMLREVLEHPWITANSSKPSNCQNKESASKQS

[15] = target: RAC-alpha serine/threonine-protein kinase (Homo sapiens) (UniProt P31749); assay: Inhibition of AKT1 at 10 uM
Sequence of RAC-alpha serine/threonine-protein kinase (Homo sapiens) (P31749 whole entry): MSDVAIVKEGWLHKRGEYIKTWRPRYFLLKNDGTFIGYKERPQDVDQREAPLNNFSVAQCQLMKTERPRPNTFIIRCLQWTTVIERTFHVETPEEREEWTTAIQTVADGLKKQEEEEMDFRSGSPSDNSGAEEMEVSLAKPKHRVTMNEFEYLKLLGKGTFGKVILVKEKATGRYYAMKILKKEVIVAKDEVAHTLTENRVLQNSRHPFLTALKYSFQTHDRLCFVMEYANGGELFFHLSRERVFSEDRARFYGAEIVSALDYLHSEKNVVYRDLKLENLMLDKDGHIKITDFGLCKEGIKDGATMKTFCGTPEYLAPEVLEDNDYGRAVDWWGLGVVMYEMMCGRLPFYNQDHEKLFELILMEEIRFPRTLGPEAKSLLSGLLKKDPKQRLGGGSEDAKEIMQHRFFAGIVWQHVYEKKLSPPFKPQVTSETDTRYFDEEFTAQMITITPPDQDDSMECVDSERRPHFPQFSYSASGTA

[16] = target: Tyrosine-protein kinase ABL1 (Homo sapiens) (UniProt P00519); assay: Inhibition of ABL1 at 10 uM
Sequence of Tyrosine-protein kinase ABL1 (Homo sapiens) (P00519 whole entry): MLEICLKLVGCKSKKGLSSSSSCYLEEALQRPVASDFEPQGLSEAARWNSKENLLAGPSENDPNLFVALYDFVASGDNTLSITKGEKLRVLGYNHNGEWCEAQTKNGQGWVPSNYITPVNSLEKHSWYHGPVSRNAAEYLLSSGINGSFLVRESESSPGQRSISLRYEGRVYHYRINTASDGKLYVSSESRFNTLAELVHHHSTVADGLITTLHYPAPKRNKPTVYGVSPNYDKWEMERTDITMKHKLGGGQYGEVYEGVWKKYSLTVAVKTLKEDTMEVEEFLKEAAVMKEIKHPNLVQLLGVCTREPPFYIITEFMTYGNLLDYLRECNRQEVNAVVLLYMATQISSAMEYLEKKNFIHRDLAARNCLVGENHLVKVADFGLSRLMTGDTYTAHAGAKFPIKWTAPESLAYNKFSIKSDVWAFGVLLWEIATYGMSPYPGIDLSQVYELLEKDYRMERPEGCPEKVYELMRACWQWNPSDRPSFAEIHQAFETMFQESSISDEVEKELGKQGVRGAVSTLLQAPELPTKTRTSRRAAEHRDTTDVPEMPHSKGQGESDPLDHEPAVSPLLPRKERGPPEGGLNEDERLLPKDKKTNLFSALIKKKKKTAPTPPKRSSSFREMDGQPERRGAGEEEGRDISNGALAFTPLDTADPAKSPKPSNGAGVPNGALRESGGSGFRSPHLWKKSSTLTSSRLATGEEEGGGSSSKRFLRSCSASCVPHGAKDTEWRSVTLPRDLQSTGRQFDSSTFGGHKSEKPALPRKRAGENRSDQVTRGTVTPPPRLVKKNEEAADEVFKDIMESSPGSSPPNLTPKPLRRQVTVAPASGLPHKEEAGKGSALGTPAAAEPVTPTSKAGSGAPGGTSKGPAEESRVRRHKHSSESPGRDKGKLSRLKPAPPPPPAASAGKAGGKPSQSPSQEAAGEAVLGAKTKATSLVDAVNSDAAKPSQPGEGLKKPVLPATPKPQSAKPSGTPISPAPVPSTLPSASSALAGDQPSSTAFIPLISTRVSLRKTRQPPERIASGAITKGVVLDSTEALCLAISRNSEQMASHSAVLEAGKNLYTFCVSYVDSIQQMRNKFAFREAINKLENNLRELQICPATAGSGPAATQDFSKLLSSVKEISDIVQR

[17] = target: Serine/threonine-protein kinase Chk1 (Homo sapiens) (UniProt O14757); assay: Inhibition of CHEK1 at 10 uM
[18] = target: Dual specificity protein kinase CLK1 (Homo sapiens) (UniProt P49759); assay: Inhibition of CLK1 at 10 uM
[19] = target: Macrophage colony-stimulating factor 1 receptor (Homo sapiens) (UniProt P07333); assay: Inhibition of CSF1R at 10 uM
[20] = target: Dual specificity tyrosine-phosphorylation-regulated kinase 1B (Homo sapiens) (UniProt Q9Y463); assay: Inhibition of DYRK1B at 10 uM
[21] = target: Receptor tyrosine-protein kinase erbB-4 (Homo sapiens) (UniProt Q15303); assay: Inhibition of ERBB4 at 10 uM
[22] = target: Receptor-type tyrosine-protein kinase FLT3 (Homo sapiens) (UniProt P36888); assay: Inhibition of FLT3 at 10 uM
[23] = target: Glycogen synthase kinase-3 beta (Homo sapiens) (UniProt P49841); assay: Inhibition of GSK3B at 10 uM
[24] = target: Insulin receptor (Homo sapiens) (UniProt P06213); assay: Inhibition of INSR at 10 uM
[25] = target: Tyrosine-protein kinase JAK1 (Homo sapiens) (UniProt P23458); assay: Inhibition of JAK1 at 10 uM
[26] = target: Tyrosine-protein kinase Lck (Homo sapiens) (UniProt P06239); assay: Inhibition of LCK at 10 uM
[27] = target: Leucine-rich repeat serine/threonine-protein kinase 2 (Homo sapiens) (UniProt Q5S007); assay: Inhibition of LRRK2 at 10 uM
[28] = target: T2, Mitogen-activated protein kinase 1; assay: Inhibition of MAPK1 at 10 uM
[29] = target: Serine/threonine-protein kinase MARK2 (Homo sapiens) (UniProt Q7KZI7); assay: Inhibition of MARK2 at 10 uM
[30] = target: Serine/threonine-protein kinase PAK 4 (Homo sapiens) (UniProt O96013); assay: Inhibition of PAK4 at 10 uM
[31] = target: Platelet-derived growth factor receptor alpha (Homo sapiens) (UniProt P16234); assay: Inhibition of PDGFRA at 10 uM
[32] = target: PI3-kinase p110-alpha/p85-alpha (Homo sapiens) (UniProt P27986+P42336); assay: Inhibition of PIK3CA/PIK3R1 at 10 uM; type: protein-complex assay
[33] = target: Serine/threonine-protein kinase PLK1 (Homo sapiens) (UniProt P53350); assay: Inhibition of PLK1 at 10 uM
[34] = target: Serine/threonine-protein kinase PLK2 (Homo sapiens) (UniProt Q9NYY3); assay: Inhibition of PLK2 at 10 uM
Sequence of Serine/threonine-protein kinase PLK2 (Homo sapiens) (Q9NYY3 whole entry, looked up): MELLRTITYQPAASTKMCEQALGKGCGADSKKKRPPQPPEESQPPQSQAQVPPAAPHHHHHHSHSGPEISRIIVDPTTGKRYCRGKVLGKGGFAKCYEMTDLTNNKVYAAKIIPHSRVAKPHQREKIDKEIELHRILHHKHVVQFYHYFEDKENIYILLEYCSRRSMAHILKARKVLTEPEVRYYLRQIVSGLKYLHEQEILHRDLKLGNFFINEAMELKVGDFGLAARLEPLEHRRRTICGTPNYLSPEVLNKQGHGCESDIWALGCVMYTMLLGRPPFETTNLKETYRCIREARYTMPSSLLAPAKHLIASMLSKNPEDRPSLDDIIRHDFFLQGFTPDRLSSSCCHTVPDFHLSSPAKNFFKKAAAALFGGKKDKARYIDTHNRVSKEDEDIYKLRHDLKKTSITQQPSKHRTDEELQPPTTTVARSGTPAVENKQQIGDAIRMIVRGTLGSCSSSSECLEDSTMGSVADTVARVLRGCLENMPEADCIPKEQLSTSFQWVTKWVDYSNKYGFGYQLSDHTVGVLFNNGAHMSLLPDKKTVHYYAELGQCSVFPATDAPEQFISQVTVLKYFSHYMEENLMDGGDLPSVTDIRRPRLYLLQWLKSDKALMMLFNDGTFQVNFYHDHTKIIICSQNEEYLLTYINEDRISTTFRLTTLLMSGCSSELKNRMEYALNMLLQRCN

[35] = target: Serine/threonine-protein kinase PLK3 (Homo sapiens) (UniProt Q9H4B4); assay: Inhibition of PLK3 at 10 uM
[36] = target: cAMP-dependent protein kinase catalytic subunit alpha (Homo sapiens) (UniProt P17612); assay: Inhibition of PRKACA at 10 uM
[37] = target: Protein kinase C beta type (Homo sapiens) (UniProt P05771); assay: Inhibition of PRKCB1 at 10 uM
[38] = target: Protein-tyrosine kinase 2-beta (Homo sapiens) (UniProt Q14289); assay: Inhibition of PTK2B at 10 uM
[39] = test system: RAF proto-oncogene serine/threonine-protein kinase (Homo sapiens), P04049 [Y340D,Y341D]; assay: Inhibition of RAF1 Y340D, Y341D mutant at 10 uM
[40] = target: Proto-oncogene tyrosine-protein kinase receptor Ret (Homo sapiens) (UniProt P07949); assay: Inhibition of RET at 10 uM
[41] = target: Receptor-interacting serine/threonine-protein kinase 2 (Homo sapiens) (UniProt O43353); assay: Inhibition of RIPK2 at 10 uM
[42] = target: Rho-associated protein kinase 2 (Homo sapiens) (UniProt O75116); assay: Inhibition of ROCK2 at 10 uM
[43] = target: Serine/threonine-protein kinase 16 (Homo sapiens) (UniProt O75716); assay: Inhibition of STK16 at 10 uM
[44] = target: Serine/threonine-protein kinase 3 (Homo sapiens) (UniProt Q13188); assay: Inhibition of STK3 at 10 uM
[45] = target: Tyrosine-protein kinase SYK (Homo sapiens) (UniProt P43405); assay: Inhibition of SYK at 10 uM
[46] = target: Dual specificity protein kinase TTK (Homo sapiens) (UniProt P33981); assay: Inhibition of TTK at 10 uM
Sequence of Dual specificity protein kinase TTK (Homo sapiens) (P33981 whole entry): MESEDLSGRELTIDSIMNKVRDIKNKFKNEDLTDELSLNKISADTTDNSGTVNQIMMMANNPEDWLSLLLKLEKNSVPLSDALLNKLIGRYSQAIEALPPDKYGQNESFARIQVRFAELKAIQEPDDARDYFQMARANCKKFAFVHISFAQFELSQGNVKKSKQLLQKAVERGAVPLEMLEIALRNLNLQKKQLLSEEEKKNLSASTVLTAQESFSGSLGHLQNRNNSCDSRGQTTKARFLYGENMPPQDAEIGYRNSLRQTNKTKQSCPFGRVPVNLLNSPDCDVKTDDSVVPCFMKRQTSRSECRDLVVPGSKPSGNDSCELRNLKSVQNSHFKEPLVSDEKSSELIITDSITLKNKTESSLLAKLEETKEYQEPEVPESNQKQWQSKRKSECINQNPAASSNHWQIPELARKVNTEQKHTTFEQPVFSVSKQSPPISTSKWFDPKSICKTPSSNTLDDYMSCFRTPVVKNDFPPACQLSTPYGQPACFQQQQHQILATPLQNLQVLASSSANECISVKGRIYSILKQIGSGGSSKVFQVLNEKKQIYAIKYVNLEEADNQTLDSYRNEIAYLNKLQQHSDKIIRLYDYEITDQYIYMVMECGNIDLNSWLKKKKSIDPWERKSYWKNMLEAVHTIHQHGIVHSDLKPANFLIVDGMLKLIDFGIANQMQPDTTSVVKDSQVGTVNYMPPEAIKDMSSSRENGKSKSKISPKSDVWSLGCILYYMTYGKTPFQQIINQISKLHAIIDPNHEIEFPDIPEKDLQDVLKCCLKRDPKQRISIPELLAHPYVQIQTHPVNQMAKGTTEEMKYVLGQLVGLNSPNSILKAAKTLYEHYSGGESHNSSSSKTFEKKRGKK

[47] = target: T1, Mitogen-activated protein kinase 10; details: 10 uM
Description: Inhibition of MAPK10 at 10 uM

T1 sequence (P53779 whole entry): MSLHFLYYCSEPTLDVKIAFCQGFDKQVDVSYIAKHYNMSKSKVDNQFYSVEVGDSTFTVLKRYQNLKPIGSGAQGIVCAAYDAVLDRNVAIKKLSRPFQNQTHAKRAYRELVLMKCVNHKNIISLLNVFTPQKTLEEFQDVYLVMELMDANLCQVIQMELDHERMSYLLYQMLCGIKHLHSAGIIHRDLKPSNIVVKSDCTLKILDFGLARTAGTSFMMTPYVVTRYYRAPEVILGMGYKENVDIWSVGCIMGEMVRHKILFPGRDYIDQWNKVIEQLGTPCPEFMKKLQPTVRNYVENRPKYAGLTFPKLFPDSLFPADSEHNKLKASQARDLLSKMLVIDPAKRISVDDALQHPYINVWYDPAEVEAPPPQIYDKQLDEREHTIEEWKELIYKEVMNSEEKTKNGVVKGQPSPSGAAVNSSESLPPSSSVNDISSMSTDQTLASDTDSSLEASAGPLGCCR

Q: Which IC50 [1] does the source give for `O=C(Cc1cccc2cnccc12)Nc1scc(Cl)c1-c1ncn[nH]1` here?
A: 11 nM

Q: What about the IC50 [2] of the same compound?
A: 43 nM

Q: And the IC50 [3]?
A: 14 nM

Q: What about the IC50 [4] of the same compound?
A: > 50000 nM

Q: What about the IC50 [5] of the same compound?
A: > 50000 nM

Q: And the Papp A→B (MDR1 [6])?
A: 27 ×10⁻⁶ cm/s

Q: What about the efflux ratio (MDR1 [7]) of the same compound?
A: 1.6

Q: What about the remaining at 2 h, 5 µM [8] of the same compound?
A: 29%

Q: What about the remaining at 2 h, 5 µM [9] of the same compound?
A: 50%

Q: What about the inhibition in vivo at 300 mg/kg (Mus musculus) of the same compound?
A: 51%

Q: What about the inhibition [10] of the same compound?
A: 19%

Q: What about the inhibition [11] of the same compound?
A: 19%

Q: And the inhibition [12]?
A: 14%

Q: And the inhibition [13]?
A: 6%

Q: What about the inhibition [14] of the same compound?
A: 31%

Q: And the inhibition [15]?
A: 4%

Q: And the inhibition [16]?
A: 2%

Q: And the inhibition [17]?
A: 5%

Q: And the inhibition [18]?
A: 7%

Q: What about the inhibition [19] of the same compound?
A: 5%

Q: And the inhibition [20]?
A: 29%

Q: And the inhibition [21]?
A: -1%

Q: And the inhibition [22]?
A: 12%

Q: What about the inhibition [23] of the same compound?
A: 25%

Q: What about the inhibition [24] of the same compound?
A: -2%

Q: What about the inhibition [25] of the same compound?
A: 1%

Q: And the inhibition [26]?
A: 11%

Q: What about the inhibition [27] of the same compound?
A: 15%

Q: And the inhibition [28]?
A: 3%

Q: And the inhibition [29]?
A: 9%

Q: What about the inhibition [30] of the same compound?
A: 1%

Q: And the inhibition [31]?
A: 2%

Q: What about the inhibition [32] of the same compound?
A: 13%

Q: What about the inhibition [33] of the same compound?
A: 5%

Q: What about the inhibition [34] of the same compound?
A: 1%

Q: And the inhibition [35]?
A: -1%

Q: What about the inhibition [36] of the same compound?
A: 3%

Q: And the inhibition [37]?
A: 3%

Q: What about the inhibition [38] of the same compound?
A: -5%

Q: And the inhibition [39]?
A: 19%

Q: And the inhibition [40]?
A: 16%

Q: And the inhibition [41]?
A: 13%

Q: And the inhibition [42]?
A: 9%

Q: And the inhibition [43]?
A: 29%

Q: What about the inhibition [44] of the same compound?
A: 3%

Q: And the inhibition [45]?
A: 19%

Q: What about the inhibition [46] of the same compound?
A: > 50%

Q: What about the inhibition [47] of the same compound?
A: 96%
